# In ChEMBL document CHEMBL1139498, “Discovery of potent, orally available vanilloid receptor-1 antagonists. Structure-activity relationship of N-aryl cinnamides” (J Med Chem, 2005):
# Key:
# [1] = target: T1, Transient receptor potential cation channel subfamily V member 1 (Homo sapiens, UniProt Q8NER1); assay: Inhibition of pH-induced calcium uptake by transient receptor potential vanilloid type 1 expressed in CHO cells; format: functional, cell-based
# [2] = target: T1, Transient receptor potential cation channel subfamily V member 1; assay: Inhibition of capsaicin-induced calcium uptake by transient receptor potential vanilloid type 1 expressed in CHO cells; format: functional, cell-based
# [3] = Steady state volume of distribution in rat after intravenous administration of 2 mg/kg; format: ADME, organism-based; parameters: dose 2 mg/kg, route intravenous; conditions: in vivo, read-out: Vss
# [4] = Half life in rat after intravenous administration of 2 mg/kg; format: ADME, organism-based; parameters: dose 2 mg/kg, route intravenous; conditions: in vivo
# [5] = Maximum time required to attain Cmax in rat after oral administration of 5 mg/kg; format: ADME, organism-based; parameters: dose 5 mg/kg, route oral; conditions: in vivo
# [6] = Plasma clearance in rat after intravenous administration of 2 mg/kg; format: ADME, organism-based; parameters: dose 2 mg/kg, route intravenous
# [7] = Oral bioavailability in rat (dose 5 mg/kg); format: ADME, organism-based; conditions: in vivo
# [8] = Peak plasma concentration in rat after oral administration of 5 mg/kg; format: ADME, organism-based; parameters: dose 5 mg/kg, route oral
# [9] = Area under concentration time curve from time 0 to infinity was determined in rat after oral administration of 5 mg/kg; format: ADME, organism-based; parameters: time infinity, dose 5 mg/kg, route oral; conditions: in vivo
# [10] = Area under concentration time curve from time 0 to infinity was determined in rat after intravenous administration of 2 mg/kg; format: ADME, organism-based; parameters: time infinity, dose 2 mg/kg, route intravenous; conditions: in vivo
# [11] = target: T1, Transient receptor potential cation channel subfamily V member 1; assay: Agonistic activity for transient receptor potential vanilloid type 1 expressed in CHO cells; format: functional, cell-based
# [12] = Area under concentration time curve from time 0 to infinity was determined in rat after intravenous administration of 3 mg/kg; format: ADME, organism-based; parameters: time infinity, dose 3 mg/kg, route intravenous; conditions: in vivo
# [13] = Plasma clearance in rat after intravenous administration of 3 mg/kg; format: ADME, organism-based; parameters: dose 3 mg/kg, route intravenous
# [14] = Half life in rat after intravenous administration of 3 mg/kg; format: ADME, organism-based; parameters: dose 3 mg/kg, route intravenous; conditions: in vivo
# [15] = Steady state volume of distribution in rat after intravenous administration of 3 mg/kg; format: ADME, organism-based; parameters: dose 3 mg/kg, route intravenous; conditions: in vivo, read-out: Vss
# T1 sequence (Q8NER1 whole entry): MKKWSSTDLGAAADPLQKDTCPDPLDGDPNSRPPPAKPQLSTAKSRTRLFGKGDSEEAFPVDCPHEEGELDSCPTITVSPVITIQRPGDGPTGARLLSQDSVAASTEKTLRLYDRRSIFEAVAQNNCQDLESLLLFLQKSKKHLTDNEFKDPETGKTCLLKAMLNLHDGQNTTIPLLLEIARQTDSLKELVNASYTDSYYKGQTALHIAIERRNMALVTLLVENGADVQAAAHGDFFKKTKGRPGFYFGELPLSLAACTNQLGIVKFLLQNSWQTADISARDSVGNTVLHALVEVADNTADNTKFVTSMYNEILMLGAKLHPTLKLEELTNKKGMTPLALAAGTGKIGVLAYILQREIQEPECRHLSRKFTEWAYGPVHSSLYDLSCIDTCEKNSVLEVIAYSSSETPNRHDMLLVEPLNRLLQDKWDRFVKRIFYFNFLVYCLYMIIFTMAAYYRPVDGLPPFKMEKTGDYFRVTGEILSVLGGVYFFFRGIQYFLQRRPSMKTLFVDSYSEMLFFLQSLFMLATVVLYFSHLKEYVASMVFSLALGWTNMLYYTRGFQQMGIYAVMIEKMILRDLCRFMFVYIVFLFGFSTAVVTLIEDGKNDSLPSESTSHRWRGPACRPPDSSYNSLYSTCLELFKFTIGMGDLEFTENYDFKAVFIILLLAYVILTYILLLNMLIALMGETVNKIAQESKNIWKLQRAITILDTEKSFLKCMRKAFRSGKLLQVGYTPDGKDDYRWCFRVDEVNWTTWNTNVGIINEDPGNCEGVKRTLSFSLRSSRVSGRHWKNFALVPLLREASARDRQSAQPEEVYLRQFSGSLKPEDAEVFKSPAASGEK
Structure (SMILES),IC50 [1] [nM],IC50 [2] [nM],also measured
CC(C)(C)c1ccc(/C=C/C(=O)Nc2ccc3c(c2)OCO3)cc1,> 4000,570,–
O=C(/C=C/c1ccc(F)cc1)Nc1ccc2c(c1)OCCO2,> 4000,1000,–
COc1cccc(NC(=O)/C=C/c2ccc(C(C)(C)C)cc2)c1,> 4000,21,–
COc1ccc(NC(=O)/C=C/c2ccc(C(C)(C)C)cc2)cc1OC,> 4000,170,–
CC(C)(C)c1cccc(/C=C/C(=O)Nc2ccc3c(c2)OCCO3)c1,> 4000,620,–
O=C(/C=C/c1ccc(C(F)(F)F)nc1)Nc1ccc2c(c1)OCCO2,1290,870,–
CC(C)(C)c1ccc(C(=CC(=O)Nc2ccc3c(c2)OCCO3)c2ccc(C(C)(C)C)cc2)cc1,> 4000,2700,–
O=C(/C=C/c1ccc(O)cc1)Nc1ccc2c(c1)OCCO2,> 4000,> 4000,–
CC(C)(C)c1ccc(/C(=C/C(=O)Nc2ccc3c(c2)OCCO3)c2ccncc2)cc1,660,44,–
CC(C)(C)c1ccc(/C=C/C(=O)Nc2ccc3c(c2)NCCO3)cc1,> 4000,110,–
COc1ccc(NC(=O)/C=C/c2ccc(C(C)(C)C)cc2)cc1O,> 4000,–,–
CC(C)(C)c1ccc(/C=C/CNc2ccc3c(c2)OCCO3)cc1,> 4000,> 4000,–
O=C(/C=C/c1ccc(-c2ccccc2)cc1)Nc1ccc2c(c1)OCCO2,> 4000,> 4000,–
CC(C)(C)c1ccc(/C=C/C(=O)Nc2ccc3c(c2)OCC(=O)N3)cc1,> 4000,270,–
COc1ccccc1NC(=O)/C=C/c1ccc(C(C)(C)C)cc1,> 4000,550,–
CN(C(=O)/C=C/c1ccc(C(C)(C)C)cc1)c1ccc2c(c1)OCCO2,> 4000,> 4000,–
CC(C)(C)c1ccc(/C=C/C(=O)Nc2ccc3c(c2)OCCO3)c(C(=O)O)c1,> 4000,> 4000,–
CC(C)(C)c1ccc(/C=C/C(=O)Nc2ccc3c(c2)NC(=O)CO3)cc1,> 4000,6.5,–
CC(C)Cc1ccc(/C=C/C(=O)Nc2ccc3c(c2)OCCO3)cc1,860,360,–
CCCCc1ccc(/C=C/C(=O)Nc2ccc3c(c2)OCCO3)cc1,2700,360,–

Structure (SMILES),IC50 [1] [nM],IC50 [2] [nM],also measured
CC(C)(C)c1ccc(/C=C/C(=O)Nc2ccccc2)cc1,> 4000,–,–
CC(C)(C)c1ccc(/C(=C/C(=O)Nc2ccc3c(c2)OCCO3)CCC(=O)O)cc1,> 4000,> 4000,–
Cc1ccc(/C=C/C(=O)Nc2ccc3c(c2)OCCO3)cc1,1100,210,–
CC(C)(C)c1ccc(/C=C/C(=O)Nc2ccc3c(c2)CCCC3)cc1,960,61,–
CC(C)(C)c1ccc(C2CC2C(=O)Nc2ccc3c(c2)OCCO3)cc1 (centres undefined),> 4000,1800,–
CC(C)(C)c1ccc(/C=C(/C(=O)Nc2ccc3c(c2)OCCO3)c2ccccc2)cc1,> 4000,> 4000,–
CC(C)(C)c1ccc(/C=C/C(=O)Nc2ccc3c(c2)OCCO3)cn1,2400,100,–
COc1ccc(/C=C/C(=O)Nc2ccc3c(c2)OCCO3)cc1,> 4000,1800,–
CC(C)(C)c1ccc(/C=C/C(=S)Nc2ccc3c(c2)OCCO3)cc1,1400,280,–
CC(C)(C)c1ccc(/C=C/C(=O)Nc2ccc3c(c2)OCCO3)nc1,2900,500,–
Cc1nc(C(F)(F)F)ccc1/C=C/C(=O)Nc1ccc2c(c1)OCCO2,870,360,–
CC/C(=C\c1ccc(C(C)(C)C)cc1)C(=O)Nc1ccc2c(c1)OCCO2,800,210,–
COc1cc(NC(=O)/C=C/c2ccc(C(C)(C)C)cc2)ccc1O,–,–,EC50 [11]: 440 nM
CC(C)(C)c1ccc(/C=C/C(=O)Nc2ccc3c(c2)OCCO3)cc1 (stereo in doubt; 34),3200,–,–
COc1ccc(NC(=O)/C=C/c2ccc(C(C)(C)C)cc2)cc1,> 4000,140,–
Oc1cc2c(cc1O)CN(C(=S)NCCc1ccc(Cl)cc1)CCC2 [CAPSAZEPINE],–,420,–
CC(C)(C)c1ccc(/C=C/C(=O)Oc2ccc3c(c2)OCCO3)cc1,3200,–,–
O=C(/C=C/c1ccccc1)Nc1ccc2c(c1)OCCO2,> 4000,> 4000,–
CN(C)CCC/C(=C\C(=O)Nc1ccc2c(c1)OCCO2)c1ccc(C(C)(C)C)cc1,> 4000,3900,–

# More lines, in order of falling IC50 [1], values ahead:
IC50 [1] [nM],IC50 [2] [nM],Structure (SMILES),also measured
660,150,CC(C)(C)c1ccc(CCC(=O)Nc2ccc3c(c2)OCCO3)cc1,–
600,–,C/C(=C\c1ccc(C(C)(C)C)cc1)C(=O)Nc1ccc2c(c1)OCCO2,–
510,78,CC(C)(C)c1ccc(/C(=C/C(=O)Nc2ccc3c(c2)OCCO3)c2cccnc2)cc1,–
470,60,CC(C)(C)c1ccc(/C=C/C(=O)Nc2ccc3c(c2)OCCO3)c(Br)c1,–
440,190,O=C(/C=C/c1ccc([N+](=O)[O-])cc1)Nc1ccc2c(c1)OCCO2,–
430,–,C/C(=C\C(=O)Nc1ccc2c(c1)OCCO2)c1ccc(C(C)(C)C)cc1,–
370,110,O=C(/C=C/c1ccc(Br)cc1)Nc1ccc2c(c1)OCCO2,–
320,250,O=C(/C=C/c1ccc(Cl)cc1)Nc1ccc2c(c1)OCCO2,–
290,36,CCOC(=O)CC/C(=C\C(=O)Nc1ccc2c(c1)OCCO2)c1ccc(C(C)(C)C)cc1,–
220,170,CCc1ccc(/C=C/C(=O)Nc2ccc3c(c2)OCCO3)cc1,–
180,25,CC(C)(C)c1ccc(/C(=C/C(=O)Nc2ccc3c(c2)OCCO3)c2ccc(C(F)(F)F)cc2)cc1,–
160,36,CC(C)(C)c1ccc(/C=C/C(=O)Nc2ccc3c(c2)NCCC3)cc1,–
150,17,CC(C)(C)c1ccc(/C=C/C(=O)Nc2ccc3c(c2)OCCO3)cc1 (stereo in doubt; 1),AUC [12]: 680 ng·h/mL; Tmax [5]: 0.5 h; clearance [13]: 73.3 mL/min/kg; half-life [14]: 1.1 h; bioavailability [7]: 3%; Vd [15]: 2.1 L/kg; Cmax [8]: 25 ng/mL; AUC(0-inf) [9]: 24 ng·h/mL
120,20,CC(C)(C)c1ccc(/C(=C/C(=O)Nc2ccc3c(c2)OCCO3)c2ccccc2)cc1,–
110,14,CC(C)(C)c1ccc(/C(=C/C(=O)Nc2ccc3c(c2)OCCO3)Cc2ccccc2)cc1,–
100,46,O=C(/C=C/c1ccc(C(F)(F)F)cc1)Nc1ccc2c(c1)OCCO2,–
94,16,CC(C)C/C(=C\C(=O)Nc1ccc2c(c1)OCCO2)c1ccc(C(C)(C)C)cc1,–
82,55,CC(C)c1ccc(/C=C/C(=O)Nc2ccc3c(c2)OCCO3)cc1,–
71,–,CC(C)(C)c1ccc(/C=C/C(=O)Nc2ccc3c(c2)NC(=O)CC3)cc1,–
57,16,CC(C)(C)c1ccc(/C=C/C(=O)Nc2ccc3c(c2)OCCN3)cc1,–
54,27,O=C(/C=C/c1ccc(C(F)(F)F)nc1N1CCCCC1)Nc1ccc2c(c1)OCCO2,–
40,15,O=C(/C=C/c1ccc(C(F)(F)F)nc1N1CCOCC1)Nc1ccc2c(c1)OCCO2,–
26,15,CCOC(=O)c1cc(C(C)(C)C)ccc1/C=C/C(=O)Nc1ccc2c(c1)OCCO2,–
2.02,–,CC(C)(C)c1ccc(/C=C/C(=O)Nc2ccc3cccnc3c2)cc1,–
1.3,1.9,O=C(/C=C/c1ccc(C(F)(F)F)nc1N1CCOCC1)Nc1ccc2cccnc2c1,Vd [3]: 1.1 L/kg; half-life [4]: 0.9 h; Tmax [5]: 1.5 h; clearance ([6]; plasma): 15 mL/min/kg; bioavailability [7]: 39%; Cmax [8]: 540 ng/mL; AUC(0-inf) [9]: 2600 ng·h/mL; AUC [10]: 2300 ng·h/mL
1,0.42,O=C(/C=C/c1ccc(C(F)(F)F)nc1N1CCCCC1)Nc1ccc2cccnc2c1,Vd [3]: 2.8 L/kg; half-life [4]: 2.9 h; Tmax [5]: 2 h; CL ([6]; in vivo): 13 mL/min/kg; F [7]: 17%; Cmax [8]: 320 ng/mL; AUC [9]: 2400 ng·h/mL; AUC [10]: 2100 ng·h/mL
